From PMC10096175, “An In Vitro Antimicrobial, Anticancer and Antioxidant Activity of N–[(2–Arylmethylthio)phenylsulfonyl]cinnamamide Derivatives” (Molecules, 2023) come the findings set out here.

Converted amounts (≈) assume the structure as drawn. Where two headings read alike, the source gives them in different places.

One experiment relates to S. aureus ATCC 6538. Kind of experiment: MIC determination, reference strain (microdilution). The conditions noted are these: Staphylococcus aureus, ATCC6538; S. aureus ATCC 6538; ± SD; Co-trimoxazole as sulfamethoxazole/trimethoprim; read-out: MIC. The experiment is classed as cell-based.
For experiment [1], the system named is S. epidermidis ATCC 14990. Described as above. In kind it is cell-based. As to conditions: Staphylococcus epidermidis, ATCC14990; S. epidermidis ATCC 14990; Co-trimoxazole as sulfamethoxazole/trimethoprim; read-out: MIC.
In a further experiment the test system is E. hirae ATCC 10541. The experiment is described as above. The experiment is classed as cell-based. As to conditions: Enterococcus hirae, ATCC10541; E. hirae ATCC 10541; Co-trimoxazole as sulfamethoxazole/trimethoprim; read-out: MIC.
The next experiment deals with E. faecalis ATCC 51299. Described as above. In kind it is cell-based. As to conditions: Enterococcus faecalis, ATCC51299; E. faecalis ATCC 51299; Co-trimoxazole as sulfamethoxazole/trimethoprim; read-out: MIC.
For another experiment, the system named is B. subtilis ATCC 6633. Described as above. The conditions noted are these: Bacillus subtilis, ATCC6633; B. subtilis ATCC 6633; Co-trimoxazole as sulfamethoxazole/trimethoprim; read-out: MIC. The experiment is classed as cell-based.
A further experiment has as its system C. diphtheriae. The experiment is described as above. In kind it is cell-based. The conditions noted are these: Corynebacterium diphtheriae; C. diphtheriae; Co-trimoxazole as sulfamethoxazole/trimethoprim; read-out: MIC.
The next experiment deals with C. albicans ATCC 10231. Kind of experiment: MIC determination, reference fungal strain (microdilution). The experiment is classed as cell-based. The conditions noted are these: Candida albicans, ATCC10231; C. albicans ATCC 10231; read-out: MIC. Background: Broth dilution looks for growth in wells or tubes with falling amounts of substance.
A further experiment relates to E. coli ATCC 8739. Kind of experiment: MIC determination, reference strain (microdilution). The experiment is classed as cell-based. The conditions noted are these: Escherichia coli, ATCC8739; E. coli ATCC 8739; Co-trimoxazole as sulfamethoxazole/trimethoprim; read-out: MIC.
Experiment [2] deals with S. epidermidis ATCC 14990. The experiment can be described thus: Blood bacteriostatic activity test in sheep blood. In kind it is cell-based, Staphylococcus epidermidis. The conditions noted are these: 24 h, 37 °C, t0 1.70 × 10^7, control t24 5.10 × 10^8. The procedure: The manifestation of the bactericidal properties of chemical compounds is low minimum bactericidal concentration (MBC) values, which allows many groups of researchers to check the killing rate over time (time killing tests). It is an important element in determining the strength and speed of action of a compound on bacteria. Such studies are usually carried out in bacterial media, without additional factors influencing the results.
This step was carried out on two types of bacteria, S. aureus ATCC 6538 (Figure 8 and Table 2) and S. epidermidis ATCC 14 990 (Figure 9 and Table 3).
The number of bacteria at the initial time (t0) was 1.30 × 10^8 CFU/mL for S. aureus and 1.70 × 10^7 CFU/mL for S. epidermidis. Live bacterial cells were assayed after 24 h of incubation at 37 °C. […] Bacterial controls without compounds grew unhindered and after 24 h (t24) were 2.28 × 10^9 for S. aureus and 5.10 × 10^8 CFU/mL for S. epidermidis. […] It can be assumed that the tested compounds were not related to any fraction of the blood. Attention should be paid to the S. epidermidis tests and the difference between the number of bacteria at t0 and after 24 h of incubation for each compound. The number of bacteria at t0 was 1.70 × 10^7 CFU/mL and after 24 h it decreased to, e.g., 9.40 × 10^6 CFU/mL for compounds 16e and 7.80 × 10^6 CFU/mL for compound 17c. It can be assumed that the tested compounds after being added to blood samples prevented bacteria from multiplying. However, under these conditions, the phagocytic cells take up the bacteria. […] This can be explained by much greater variety of mechanisms of action of S. aureus against phagocytic cells than of S. epidermidis. This can be integrated with the bacterial cell compounds, e.g., protein A, as well as enzymes that bacteria can secrete outside the cell, e.g., coagulase and staphylokinase. Additional studies should be conducted to check how the tested compounds affect the enzymes secreted by S. aureus.
The assay was performed as previously described by with a modification. Pure sheep blood was used for the research. Two strains of bacteria S. aureus ATCC 6538 and S. epidermidis ATCC 14990 were used with an inoculum density of approximately 10^8 CFU/mL at 0 time. The final concentration of the compounds was 0.5, 1, 2, 4, and 8 µg/mL, and the final volume of the assay tube was 1 mL. Bacterial survivors were determined on MH agar plates (CFU/mL) at 24 h after exposure.

The subject of the next experiment is HeLa cells. Kind of experiment: MTT assay. The experiment is classed as cell-based, human. As to conditions: for IC50: HeLa, MTT, 24 h treatment; for Selectivity index (SI): IC50 HEK-293 / IC50 HeLa. In general terms: Tetrazolium assays rely on reduction of a dye to a coloured formazan, in cell work by metabolically active cells.
Another experiment deals with MCF-7 cells. Kind of experiment: MTT assay. The experiment is classed as cell-based, human. The conditions noted are these: for IC50: Homo sapiens, MCF7, MCF-7, MTT, 24 h treatment, read-out: IC50; for Selectivity index (SI): IC50 HEK-293 / IC50 MCF-7.
A further experiment deals with HEK-293 cells. The experiment can be described thus: MTT assay, noncancerous cells. As to conditions: Homo sapiens, HEK293; HEK-293; MTT, 24 h treatment; read-out: IC50. In kind it is cell-based.
Another experiment can be described thus: DPPH assay. The conditions noted are these: DPPH radical scavenging; 40 min, room temperature. Put shortly:
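Samples in methanol/DMSO (9/1 v/v) mixed with 0.06 mM methanolic DPPH (170 µL in 300 µL final), kept 40 min at room temperature in the dark. Absorbance at 510 nm; inhibition % relative to solvent control, IC50 derived from concentration series. Three runs in triplicate (n = 9).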
(In general: Loss of DPPH colour is used to gauge radical scavenging.)

The next experiment in a line: ABTS assay. The conditions noted are these: ABTS radical scavenging; 10 min, 30 °C.
[3] abbreviates: Homo sapiens, 24 h, read-out: IC50.

Regarding `Cc1cc(S(=O)(=O)NC(=O)/C=C/c2ccc(Cl)cc2)c(SCc2cccc3ccccc23)cc1Cl` [Compound 16d, (E)–N–{4–Chloro–5–methyl–2–[(naphthalen–1–yl)methylthio]phenylsulfonyl}–3–(4–chlorophenyl)acrylamide], the MIC in the experiment with S. aureus ATCC 6538 was 1 µg/mL (≈ 1.84 µM); in experiment [1], 1 ± 0.29 µg/mL (≈ 1.84 µM); in the experiment on E. hirae ATCC 10541, 2 ± 0.58 µg/mL (≈ 3.69 µM); in the experiment with E. faecalis ATCC 51299, 2 ± 0.87 µg/mL (≈ 3.69 µM); with B. subtilis ATCC 6633, 62.5 ± 0.29 µg/mL (≈ 115 µM); with C. diphtheriae, more than 125 µg/mL. Also, the MIC in the experiment on C. albicans ATCC 10231 and in the experiment with E. coli ATCC 8739 was more than 125 µg/mL each time. The “Number of viable cells of Staphylococcus epidermidis” value (from here on “Number”) in experiment [2] (1 µg/mL) was 4.00 × 10^6 CFU/mL; in experiment [2] (2 µg/mL) it was 3.00 × 10^6 CFU/mL; in experiment [2] (4 µg/mL), 2.00 × 10^6 CFU/mL; in [2] (8 µg/mL), 2.50 × 10^6 CFU/mL. Also, the IC50 in the experiment with HeLa cells was 9.66 ± 0.75 µg/mL (≈ 17.8 µM); in the experiment with HeLa cells (setting [3]) it was less than 10 µg/mL; in the experiment with MCF-7 cells, 12.8 ± 0.29 µg/mL (≈ 23.6 µM); in the experiment on HEK-293 cells it was 10.8 ± 0.4 µg/mL (≈ 19.9 µM). For the same molecule, the “Selectivity index (SI)” value is 1.1 in the experiment on HeLa cells and 0.8 in the experiment on MCF-7 cells. Moreover, in the experiment “DPPH assay”, the “IC50 DPPH” value is 348.21 ± 0.29 µg/mL (≈ 642 µM). Moreover, the “IC50 ABTS” value in “ABTS assay” was determined as 627.81 ± 2.29 µg/mL (≈ 1160 µM).
As to `Cc1cc(S(=O)(=O)NC(=O)/C=C/c2ccc(Cl)cc2)c(SCc2cc3c(cc2Cl)OCO3)cc1Cl` [Compound 17c, (E)–N–{4–Chloro–2–[(6–chlorobenzo[d][1,3]dioxol–5–yl)methylthio]–5–methylphenylsulfonyl}–3–(4–chlorophenyl)acrylamide], the MIC was 1 ± 0.29 µg/mL (≈ 1.75 µM) in the experiment on S. aureus ATCC 6538; 1 ± 0.29 µg/mL (≈ 1.75 µM) in experiment [1]; 2 ± 0.58 µg/mL (≈ 3.5 µM) with E. hirae ATCC 10541; 2 ± 0.58 µg/mL (≈ 3.5 µM) in the experiment with E. faecalis ATCC 51299; 62.5 ± 0.29 µg/mL (≈ 109 µM) with B. subtilis ATCC 6633; more than 125 µg/mL with C. diphtheriae. The MIC with C. albicans ATCC 10231 and with E. coli ATCC 8739 was more than 125 µg/mL each time. Also, the “Number” value in experiment [2] (1 µg/mL) is given as 7.80 × 10^6 CFU/mL; in [2] (2 µg/mL), 4.25 × 10^6 CFU/mL; in experiment [2] (4 µg/mL), 1.40 × 10^7 CFU/mL; in [2] (8 µg/mL) it was 5.10 × 10^6 CFU/mL. Also, the IC50 is 11.2 ± 0.7 µg/mL (≈ 19.7 µM) with HeLa cells (setting [3]), 11.6 ± 0.91 µg/mL (≈ 20.4 µM) in the experiment on MCF-7 cells and 14.6 ± 0.58 µg/mL (≈ 25.5 µM) in the experiment on HEK-293 cells. Moreover, the “Selectivity index (SI)” value in the experiment on HeLa cells came out at 1.3; in the experiment on MCF-7 cells, 1.2. For the same molecule, the “IC50 DPPH” value in the experiment “DPPH assay” is listed as 1077.66 ± 0.42 µg/mL (≈ 1890 µM). In “ABTS assay”, the “IC50 ABTS” value was determined as 496.63 ± 0.48 µg/mL (≈ 870 µM).
Take `COc1ccc(/C=C/C(=O)NS(=O)(=O)c2cc(C)c(Cl)cc2SCc2cccc3ccccc23)cc1F` [Compound 16e, (E)–N–{4–Chloro–5–methyl–2–[(naphthalen–1–yl)methylthio]phenylsulfonyl}–3–(3–fluoro–4–methoxyphenyl)acrylamide]: the MIC came out at 2 ± 0.58 µg/mL (≈ 3.6 µM) in the experiment on S. aureus ATCC 6538; 1 ± 0.29 µg/mL (≈ 1.8 µM) in experiment [1]; 4 ± 0.15 µg/mL (≈ 7.19 µM) with E. hirae ATCC 10541; 4 ± 0.15 µg/mL (≈ 7.19 µM) in the experiment on E. faecalis ATCC 51299; 62.5 ± 0.29 µg/mL (≈ 112 µM) in the experiment on B. subtilis ATCC 6633; 62.5 ± 0.29 µg/mL (≈ 112 µM) in the experiment on C. diphtheriae. Further, the MIC with C. albicans ATCC 10231 and in the experiment with E. coli ATCC 8739 was more than 125 µg/mL throughout. The “Number” value is given as 9.40 × 10^6 CFU/mL in experiment [2] (1 µg/mL), 4.00 × 10^6 CFU/mL in experiment [2] (2 µg/mL), 3.20 × 10^6 CFU/mL in [2] (4 µg/mL) and 3.00 × 10^6 CFU/mL in experiment [2] (8 µg/mL). In addition, the IC50 in the experiment on HeLa cells (setting [3]) stood at 12.3 ± 0.2 µg/mL (≈ 22.2 µM); in the experiment on MCF-7 cells it was 15.5 ± 0.82 µg/mL (≈ 27.8 µM); in the experiment on HEK-293 cells, 10 ± 0.23 µg/mL (≈ 18 µM). The “Selectivity index (SI)” value in the experiment on HeLa cells came out at 0.8; with MCF-7 cells, 0.6. Further, the “IC50 DPPH” value in the experiment “DPPH assay” was 539.30 ± 0.13 µg/mL (≈ 970 µM). Moreover, the “IC50 ABTS” value in the experiment “ABTS assay” is 697.70 ± 0.43 µg/mL (≈ 1250 µM).

The term MIC denotes the lowest concentration found to suppress growth. In general, IC50 refers to the concentration that gives 50% inhibition.
